Each structure is given as a SMILES string.

The test system of experiment [1] is Bovine D7.5 embryos at the blastocyst stage. Kind of experiment: Culture of crushed whole bovine blastocysts on MEF feeder layer with 5′-azacytidine (primary and passaged outgrowths). It is filed as cell-based. As for the experimental part: Bovine D7.5 embryos at the blastocyst stage were crushed and depressed into mouse embryonic feeder (MEF) layers, using fine-tipped glass micropipettes or Ultra-fine needle insulin syringe, and cultured in alpha-MEM medium in presence of bFGF, hEGF, ITS, hrLIF, 2-beta-ME, Glutamax, NEAA and 20% FCS. On the same day or on the following day the media was replaced with fresh media containing (treated group) or not containing (untreated group) 5 μM 5′-azacytidine. The media in each group was changed every 3 days.
After seven to nine days, non-treated and treated “squashed” whole embryos developed morphologically distinguishable primary embryonal outgrowths.
These cell colonies reached confluence in 14-21 days, depending on the number of pieces that were placed in the dish. The growing colonies which developed into confluent monolayers expressed marker of pluripotency, such as Oct4.

The subject of experiment [2] is mouse pre-implantation embryos (129sv x OG2 Oct4-EGFP). Kind of experiment: Isolation of ES-like cells from mouse morula/blastocysts pre-treated with 5-aza-cytidine (Oct4-EGFP reporter). It is filed as cell-based. The settings on record: 1 μM for 24 h pre-treatment.
Procedure: Pre-pubertal (5-6 week old) 129sv females were super-ovulated using a routine protocol (1 IU PMSG and HCG injected i.p. 48h apart) before mating with OG2 males. […] The OG2 males, used as studs for mating, were C57/B16 strain and transgenic for an Oct4-EGFP construct. All pluripotent cells from these mice express GFP and this property was exploited in this study with GFP being used as a fluorescent marker to facilitate the identification of ESCs once derived. Zygotes were collected from the oviduct of humanely killed female mice. Cumulus cells were removed from zygotes by treatment with Hyaluronidase (300 IU/ml) in KSOM medium (Chemicon). The zygotes were carefully washed to remove hyaluronidase and transferred to a fresh dish with culture drops in a 37° C. incubator and allowed to develop to the morula/blastocyst stage. Treatment of Morula/Blastocyst with 1 μM of 5-aza-cytidine. Morula/blastocysts were cultured in the KSOM culture drops supplemented with 1 μM 5-aza-cytidine for 24 hr. F1 (CBA/C57) MEF's were used as a feeder layer to facilitate attachment of embryos and subsequent isolation and support of ESCs. MEF's were inactivated by treatment with mitomycin C (10 μg/ml) for 2.5 hr in the 37° C. incubator and plated at the rate of 3×10^5 cells/ml per 6 cm dish. […]

In the case of `Nc1ncn([C@@H]2O[C@H](CO)[C@@H](O)[C@H]2O)c(=O)n1` [5′-azacytidine, 5-azacytidine], the “Cell composition/morphology of primary embryonal outgrowth (treated outgrowth, TRO)” value in experiment [1] (5 μM, after seven to nine days of culture, untreated outgrowths contained pluripotent, trophoblast and primitive endoderm cells) is “consisting only of cells with morphology, characteristic of bovine ES-like cells”. Besides, the “Expression of markers of pluripotency Oct4, Rex1 and SSEA-1 in TRO outgrowths” value in experiment [1] (5 μM, in control outgrowths only the PC part expressed the markers) is listed as “all the cells expressed these markers”. In addition, in experiment [1] (5 μM, over the next 9-12 days, without any changes in morphology), the “Diameter of TRO outgrowths” value is on record as “about 2 cm”. For the same compound, in experiment [1] (concentration reduced to below 2.5 μM), the “Same effects on primary and passaged cultures at reduced concentration” value is “not observed”. Moreover, the “Time for passaged colonies to reach confluence” value in experiment [1] (passaged TRO in the presence of 5′-azacytidine, depends on number of pieces in the dish) was in the range of 14 to 21 days. The “Colony formation of passaged TRO outgrowths” value in experiment [1] (primary TRO cultured 14-21 days, split into 600-800 μm pieces, passaged onto fresh feeder layer, cultured in the presence of 5′-azacytidine) is given as “able to form colonies of cells with uniform morphology, characteristic of bovine ES-like cells”. The “Expression of GFP transgene under control of Oct4 in putative ESCs” value in experiment [2] (then 0.1 μM in modified ESC medium) is recorded as “expressed a GFP transgene”. The “Formation of ESC-like colonies from embryonal explants” value in experiment [2] (then 0.1 μM in modified ESC medium on feeder layer, 8-10 days of culture) was “colonies of cells resembling ESCs were observed”.

Values taken from patent US20100138947A1, “Method for Producing Stem Cells or Stel Cell-Like Cells from Mammalian Embryos” (priority 2005, published 2010).
